The values below are quoted from earlier work in patent publication US20230346708A1, “STABLE FORMULATIONS OF ANTI-CANCER PEPTIDES” (Oncolyze, Inc., priority 2020, published 2023).

The test system of the data set is cancer cells. The settings on record: cancer cells vs normal cells; general statement, no data shown.

For “ETFSDLWKLLKKWKMRRNQFWVKVQRG [PNC-28, p53 aa17-26-MRP anti-cancer peptide]”, the Tumor cell necrosis entry is “induce tumor cell necrosis of cancer cells, but not normal cells”.
